Tested on: HEK293T cells carrying the ATF4 luciferase reporter
Assay: ATF4-Luc assay, in vitro model of Vanishing Cell White Matter Disease (VWMD)
Format: cell-based
Details: Homo sapiens, HEK-293T, 1 μg/mL tunicamycin, 7 hours, One Glo luminescence
Summary of the method: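 Compound at 200 nM and tunicamycin at 1 μg/mL were given together for 7 h to HEK293T cells stably transduced with an ATF4 5′-UTR-driven firefly luciferase reporter. Read-out by luminescence, reported as EC50.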

Row | SMILES | EC50
1 | O=C(COc1ccc(Cl)c(F)c1)NC12CCC(NC(=O)c3ccc(C(F)(F)F)o3)(CC1)CC2O (centres unmarked) [Compound 625, N-{4-[2-(4-chloro-3-fluorophenoxy)acetamido]-3-hydroxybicyclo[2.2.2]octan-1-yl}-5-(trifluoromethyl)furan-2-carboxamide] | 0.25 to 1 µM
2 | Cn1cc(C(=O)NC23CCC(NC(=O)COc4ccc(Cl)c(F)c4)(CC2)C(O)C3)cn1 (centres unmarked) [Compound 626, N-{4-[2-(4-chloro-3-fluorophenoxy)acetamido]-3-hydroxybicyclo[2.2.2]octan-1-yl}-1-methyl-1H-pyrazole-4-carboxamide] | 0.05 to 0.25 µM
3 | O=C(COc1ccc(Cl)c(F)c1)NC12CCC(NC(=O)c3cc4nccnc4s3)(CC1)CC2O (centres unmarked) [Compound 627, N-{4-[2-(4-chloro-3-fluorophenoxy)acetamido]-3-hydroxybicyclo[2.2.2]octan-1-yl}thieno[2,3-b]pyrazine-6-carboxamide] | > 2 µM
4 | O=C(COc1ccc(Cl)c(F)c1)NC12CCC(NC(=O)c3ccno3)(CC1)CC2O (centres unmarked) [Compound 628, N-{4-[2-(4-chloro-3-fluorophenoxy)acetamido]-3-hydroxybicyclo[2.2.2]octan-1-yl}-1,2-oxazole-5-carboxamide] | 0.25 to 1 µM
5 | CC(C)(C)c1nc(C(=O)NC23CCC(NC(=O)COc4ccc(Cl)c(F)c4)(CC2)C(O)C3)co1 (centres unmarked) [Compound 629, 2-tert-butyl-N-{4-[2-(4-chloro-3-fluorophenoxy)acetamido]-3-hydroxybicyclo[2.2.2]octan-1-yl}-1,3-oxazole-4-carboxamide] | 0.25 to 1 µM
6 | Cc1cc(C(=O)NC23CCC(NC(=O)COc4ccc(Cl)c(F)c4)(CC2)C(=O)C3)on1 [Compound 630, N-{4-[2-(4-chloro-3-fluorophenoxy)acetamido]-3-oxobicyclo[2.2.2]octan-1-yl}-3-methyl-1,2-oxazole-5-carboxamide] | 0.25 to 1 µM
7 | O=C(COc1ccc(Cl)c(F)c1)NC12CC(NC(=O)c3ccn4nccc4n3)(C1)C2 [Compound 631, N-{3-[2-(4-chloro-3-fluorophenoxy)acetamido]bicyclo[1.1.1]pentan-1-yl}pyrazolo[1,5-a]pyrimidine-5-carboxamide] | 0.05 to 0.25 µM
8 | O=C(COc1ccc(Cl)c(F)c1)NC12CCC(NC(=O)c3cc(C(F)F)no3)(CC1)CC2O (centres unmarked) [Compound 632, N-{4-[2-(4-chloro-3-fluorophenoxy)acetamido]-3-hydroxybicyclo[2.2.2]octan-1-yl}-3-(difluoromethyl)-1,2-oxazole-5-carboxamide] | < 0.05 µM
9 | Cn1cc(-c2cc(C(=O)NC34CCC(NC(=O)COc5ccc(Cl)c(F)c5)(CC3)C(O)C4)on2)cn1 (centres unmarked) [Compound 633, N-{4-[2-(4-chloro-3-fluorophenoxy)acetamido]-3-hydroxybicyclo[2.2.2]octan-1-yl}-3-(1-methyl-1H-pyrazol-4-yl)-1,2-oxazole-5-carboxamide] | 0.05 to 0.25 µM
10 | O=C(COc1ccc(Cl)c(F)c1)NC12CCC(NC(=O)c3cnon3)(CC1)CC2O (centres unmarked) [Compound 634, N-{4-[2-(4-chloro-3-fluorophenoxy)acetamido]-3-hydroxybicyclo[2.2.2]octan-1-yl}-1,2,5-oxadiazole-3-carboxamide] | > 2 µM
11 | O=C(COc1ccc2c(c1)OC(F)(F)O2)NC12CCC(NC(=O)c3cccc(F)c3)(CC1)C[C@@H]2O [Compound 635, N-[(3S)-4-{2-[(2,2-difluoro-2H-1,3-benzodioxol-5-yl)oxy]acetamido}-3-hydroxybicyclo[2.2.2]octan-1-yl]-3-fluorobenzamide] | 0.25 to 1 µM
12 | Cc1cc(C(=O)NC23CCC(NC(=O)COc4ccc5c(c4)OC(F)(F)O5)(CC2)[C@@H](O)C3)on1 [Compound 636, N-[(3S)-4-{2-[(2,2-difluoro-2H-1,3-benzodioxol-5-yl)oxy]acetamido}-3-hydroxybicyclo[2.2.2]octan-1-yl]-3-methyl-1,2-oxazole-5-carboxamide] | 0.25 to 1 µM
13 | Cc1nn(C)c(C(=O)NC23CCC(NC(=O)COc4ccc5c(c4)OC(F)(F)O5)(CC2)[C@@H](O)C3)c1F [Compound 637, N-[(3S)-4-{2-[(2,2-difluoro-2H-1,3-benzodioxol-5-yl)oxy]acetamido}-3-hydroxybicyclo[2.2.2]octan-1-yl]-4-fluoro-1,3-dimethyl-1H-pyrazole-5-carboxamide] | 0.25 to 1 µM
14 | Cc1cnc(C(=O)NC23CCC(NC(=O)COc4ccc5c(c4)OC(F)(F)O5)(CC2)[C@@H](O)C3)cn1 [Compound 638, N-[(3S)-4-{2-[(2,2-difluoro-2H-1,3-benzodioxol-5-yl)oxy]acetamido}-3-hydroxybicyclo[2.2.2]octan-1-yl]-5-methylpyrazine-2-carboxamide] | 0.25 to 1 µM
15 | Cc1cc2c(NC34CC(NC(=O)COc5ccc(F)cc5)(C3)C4)nccn2n1 [Compound 639, 2-(4-fluorophenoxy)-N-{3-[(2-methylpyrazolo[1,5-a]pyrazin-4-yl)amino]bicyclo[1.1.1]pentan-1-yl}acetamide] | 0.05 to 0.25 µM
16 | Cc1cc2c(NC34CC(NC(=O)COc5cccc(F)c5)(C3)C4)nccn2n1 [Compound 640, 2-(3-fluorophenoxy)-N-{3-[(2-methylpyrazolo[1,5-a]pyrazin-4-yl)amino]bicyclo[1.1.1]pentan-1-yl}acetamide] | 0.25 to 1 µM

Row | SMILES | EC50
17 | O=C(COc1ccc(Cl)c(F)c1)NC12CC(NC(=O)c3csc(C(F)(F)F)n3)(C1)C2 [Compound 641, N-{3-[2-(4-chloro-3-fluorophenoxy)acetamido]bicyclo[1.1.1]pentan-1-yl}-2-(trifluoromethyl)-1,3-thiazole-4-carboxamide] | < 0.05 µM
18 | CC(C)c1ccc(C(=O)NC23CC(NC(=O)COc4ccc(Cl)c(F)c4)(C2)C3)cn1 [Compound 642, N-{3-[2-(4-chloro-3-fluorophenoxy)acetamido]bicyclo[1.1.1]pentan-1-yl}-6-(propan-2-yl)pyridine-3-carboxamide] | 1 to 2 µM
19 | CC(C)c1ccc(C(=O)NC23CC(NC(=O)COc4ccc(Cl)c(Cl)c4)(C2)C3)cn1 [Compound 643, N-{3-[2-(3,4-dichlorophenoxy)acetamido]bicyclo[1.1.1]pentan-1-yl}-6-(propan-2-yl)pyridine-3-carboxamide] | 0.25 to 1 µM
20 | Cc1cncc(C(=O)NC23CC(NC(=O)COc4ccc(Cl)c(F)c4)(C2)C3)c1 [Compound 644, N-{3-[2-(4-chloro-3-fluorophenoxy)acetamido]bicyclo[1.1.1]pentan-1-yl}-5-methylpyridine-3-carboxamide] | 0.05 to 0.25 µM
21 | Cc1cncc(C(=O)NC23CC(NC(=O)COc4ccc(Cl)c(Cl)c4)(C2)C3)c1 [Compound 645, N-{3-[2-(3,4-dichlorophenoxy)acetamido]bicyclo[1.1.1]pentan-1-yl}-5-methylpyridine-3-carboxamide] | 0.05 to 0.25 µM
22 | O=C(COc1ccc(Cl)c(Cl)c1)NC12CC(NC(=O)c3cnc(C(F)(F)F)s3)(C1)C2 [Compound 646, N-{3-[2-(3,4-dichlorophenoxy)acetamido]bicyclo[1.1.1]pentan-1-yl}-2-(trifluoromethyl)-1,3-thiazole-5-carboxamide] | 0.05 to 0.25 µM
23 | O=C(COc1ccc(Cl)c(F)c1)NC12CCC(NC(=O)c3cnc(C(F)(F)F)s3)(C1)C2 [Compound 647, N-{4-[2-(4-chloro-3-fluorophenoxy)acetamido]bicyclo[2.1.1]hexan-1-yl}-2-(trifluoromethyl)-1,3-thiazole-5-carboxamide] | 0.25 to 1 µM
24 | Cn1c(C(=O)NC23CC(NC(=O)COc4ccc(Cl)c(F)c4)(C2)C3)cc2ccccc21 [Compound 648, N-{3-[2-(4-chloro-3-fluorophenoxy)acetamido]bicyclo[1.1.1]pentan-1-yl}-1-methyl-1H-indole-2-carboxamide] | 0.05 to 0.25 µM
25 | O=C(COc1ccc(Cl)c(F)c1)NC12CC(Nc3cnc(C(F)F)cn3)(C1)C2 [Compound 649, 2-(4-chloro-3-fluorophenoxy)-N-(3-{[5-(difluoromethyl)pyrazin-2-yl]amino}bicyclo[1.1.1]pentan-1-yl)acetamide] | 1 to 2 µM
26 | Cc1cncc(C(=O)NC23CC(NC(=O)COc4ccc(Cl)c(F)c4)(C2)C3)n1 [Compound 650, N-{3-[2-(4-chloro-3-fluorophenoxy)acetamido]bicyclo[1.1.1]pentan-1-yl}-6-methylpyrazine-2-carboxamide] | 0.05 to 0.25 µM
27 | COc1cc(C(=O)NC23CC(NC(=O)COc4ccc(Cl)c(F)c4)(C2)C3)n(C)n1 [Compound 651, N-{3-[2-(4-chloro-3-fluorophenoxy)acetamido]bicyclo[1.1.1]pentan-1-yl}-3-methoxy-1-methyl-1H-pyrazole-5-carboxamide] | 0.05 to 0.25 µM
28 | O=C(COc1ccc(Cl)c(F)c1)NC12CCC(NC(=O)c3cnc(C(F)(F)F)cn3)(CC1)C[C@@H]2O [Compound 652, N-{(3S)-4-[2-(4-chloro-3-fluorophenoxy)acetamido]-3-hydroxybicyclo[2.2.2]octan-1-yl}-5-(trifluoromethyl)pyrazine-2-carboxamide] | < 0.05 µM
29 | O=C(COc1ccc(Cl)c(F)c1)NC12CCC(NC(=O)c3cnc(C4CC4)cn3)(CC1)C[C@@H]2O [Compound 653, N-{(3S)-4-[2-(4-chloro-3-fluorophenoxy)acetamido]-3-hydroxybicyclo[2.2.2]octan-1-yl}-5-cyclopropylpyrazine-2-carboxamide] | 0.25 to 1 µM
30 | O=C(COc1ccc(Cl)c(F)c1)NC12CC(NC(=O)c3cc(C(F)F)no3)(C1)C2 [Compound 654, N-{3-[2-(4-chloro-3-fluorophenoxy)acetamido]bicyclo[1.1.1]pentan-1-yl}-3-(difluoromethyl)-1,2-oxazole-5-carboxamide] | 0.05 to 0.25 µM
31 | O=C(COc1ccc(Cl)c(F)c1)NC12CC(NC(=O)c3csc(C4CC4)n3)(C1)C2 [Compound 655, N-{3-[2-(4-chloro-3-fluorophenoxy)acetamido]bicyclo[1.1.1]pentan-1-yl}-2-cyclopropyl-1,3-thiazole-4-carboxamide] | 0.05 to 0.25 µM
32 | O=C(COc1ccc(Cl)c(F)c1)NC12CCC(NC(=O)c3ccccc3C(=O)O)(CC1)CC2O (centres unmarked) [Compound 656, 2-({4-[2-(4-chloro-3-fluorophenoxy)acetamido]-3-hydroxybicyclo[2.2.2]octan-1-yl}carbamoyl)benzoic acid] | > 2 µM

— US10913727B2, “Modulators of the integrated stress pathway” (Calico Life Sciences LLC, priority 2016, dated 2021)
